Reference: paper PMC12446476 (Nature Communications, 2025)
“And” between values parts separate entries of the source, which are not always exact repeats. Identical values can stand only once.

Test system: N. gonorrhoeae
Test: N. gonorrhoeae murine vaginal infection model, efficacy
Assay type: in vivo, mouse
Conditions: BID
Procedure: The N. gonorrhoeae female mouse vaginal model[45] was performed in accordance with the Guide for Care and Use of Laboratory Animals[75]. Animal rooms were maintained at a temperature range of 20–24 °C and humidity between 30% and 70%, with 12 h light/dark cycles. Ovariectomized BALB/c female mice (5–6 weeks, BioLASCO Taiwan Co., Ltd.) were treated with estradiol (0.23 mg/mouse) two days before infection and on the day of infection. Ovariectomized mice were used to avoid staging mice before treating them with estradiol. Beginning two days prior to infection and maintained until the end of the study, animals were treated twice daily with streptomycin (1.2 mg/mouse) and vancomycin (0.6 mg/mouse) each via intraperitoneal (IP) injection and received trimethoprim sulfate in the drinking water (0.4 mg/mL) to control vaginal microflora. Animals were anesthetised with pentobarbital (80 mg/kg), the vagina was rinsed with 50 mM HEPES (pH 7.4), and then inoculated with N. gonorrhoeae in pre-warmed PBS (0.02 mL/mouse containing ~1 × 10^5 CFU).
Control groups received either a single IP injection of ceftriaxone or 5% dextrose (vehicle) twice daily. Animals were sacrificed via CO2 asphyxiation at either 2 h (baseline), 26 and/or 50 h post-infection. Vaginal lavage was performed twice with 200 µL GC broth containing 0.05% saponin to recover bacteria. Bacterial burden in the lavage fluids was determined by performing 10-fold serial dilutions and plating on chocolate agar plates. Four strains were assessed using the model; ATCC 700825 is naturally streptomycin-resistant, whereas AR Bank0179-15, AR Bank0181-17 and WHO X-07 are derivatives of AR Bank0179, AR Bank0181 and WHO X, respectively, that were engineered for streptomycin resistance for use in the model.

[1] = Data 4, N. gonorrhoeae WHO X-07, ovariectomized BALB/c, 20 mg/kg PO, 24h, individual animals, 20 mg/kg
[2] = Data 4, N. gonorrhoeae WHO X-07, ovariectomized BALB/c, 20 mg/kg PO, 48h, individual animals, 20 mg/kg
[3] = Data 4, N. gonorrhoeae WHO X-07, ovariectomized BALB/c, 30 mg/kg PO, 24h, individual animals, 30 mg/kg
[4] = Data 4, N. gonorrhoeae WHO X-07, ovariectomized BALB/c, 30 mg/kg PO, 48h, individual animals, 30 mg/kg
[5] = Data 4, N. gonorrhoeae WHO X-07, ovariectomized BALB/c, 40 mg/kg PO, 24h, individual animals, 40 mg/kg
[6] = Data 4, N. gonorrhoeae WHO X-07, ovariectomized BALB/c, 40 mg/kg PO, 48h, individual animals, 40 mg/kg
[7] = Data 4, N. gonorrhoeae WHO X-07, ovariectomized BALB/c, 80 mg/kg PO, 24h, individual animals, 80 mg/kg
[8] = Data 4, N. gonorrhoeae WHO X-07, ovariectomized BALB/c, 80 mg/kg PO, 48h, individual animals, 80 mg/kg
[9] = Data 4, N. gonorrhoeae WHO X-07, ovariectomized BALB/c, 160 mg/kg PO, 24h, individual animals, 160 mg/kg
[10] = Data 4, N. gonorrhoeae WHO X-07, ovariectomized BALB/c, 160 mg/kg PO, 48h, individual animals
[11] = N. gonorrhoeae AR Bank0179-15, vaginal lavage, individual mice, Debio 1453P 10 mg/kg PO, 24h
[12] = N. gonorrhoeae AR Bank0179-15, vaginal lavage, individual mice, Debio 1453P 10 mg/kg PO, 48h
[13] = N. gonorrhoeae AR Bank0179-15, vaginal lavage, individual mice, Debio 1453P 20 mg/kg PO, 24h

Cc1c(CN(C)C(=O)/C=C/c2cnc3c(c2)N[C@H](C)[C@H](OP(=O)([O-])[O-])C(=O)N3)oc2ccccc12.[Na+].[Na+] [Debio 1453 P]
CFU/mL lavage fluid [1]: 780000 CFU/mL lavage fluid and 510000 CFU/mL lavage fluid and 2110000 CFU/mL lavage fluid and 820000 CFU/mL lavage fluid and 1010000 CFU/mL lavage fluid
Log10(CFU/mL lavage fluid) [1]: 5.89 Log10(CFU/mL lavage fluid) and 5.71 Log10(CFU/mL lavage fluid) and 6.32 Log10(CFU/mL lavage fluid) and 5.91 Log10(CFU/mL lavage fluid) and 6.00 Log10(CFU/mL lavage fluid)
CFU/mL lavage fluid [2]: 2660000 CFU/mL lavage fluid and 620000 CFU/mL lavage fluid and 3200000 CFU/mL lavage fluid and 920000 CFU/mL lavage fluid and 870000 CFU/mL lavage fluid
Log10(CFU/mL lavage fluid) [2]: 6.42 Log10(CFU/mL lavage fluid) and 5.79 Log10(CFU/mL lavage fluid) and 6.51 Log10(CFU/mL lavage fluid) and 5.96 Log10(CFU/mL lavage fluid) and 5.94 Log10(CFU/mL lavage fluid)
CFU/mL lavage fluid [3]: 740000 CFU/mL lavage fluid and 760000 CFU/mL lavage fluid and 840000 CFU/mL lavage fluid and 440000 CFU/mL lavage fluid and 700000 CFU/mL lavage fluid
Log10(CFU/mL lavage fluid) [3]: 5.87 Log10(CFU/mL lavage fluid) and 5.88 Log10(CFU/mL lavage fluid) and 5.92 Log10(CFU/mL lavage fluid) and 5.64 Log10(CFU/mL lavage fluid) and 5.85 Log10(CFU/mL lavage fluid)
CFU/mL lavage fluid [4]: 790000 CFU/mL lavage fluid and 1090000 CFU/mL lavage fluid and 46000 CFU/mL lavage fluid and 550000 CFU/mL lavage fluid and 1250000 CFU/mL lavage fluid
Log10(CFU/mL lavage fluid) [4]: 5.90 Log10(CFU/mL lavage fluid) and 6.04 Log10(CFU/mL lavage fluid) and 4.66 Log10(CFU/mL lavage fluid) and 5.74 Log10(CFU/mL lavage fluid) and 6.10 Log10(CFU/mL lavage fluid)
CFU/mL lavage fluid [5]: 2240000 CFU/mL lavage fluid and 380000 CFU/mL lavage fluid and 92000 CFU/mL lavage fluid and 77000 CFU/mL lavage fluid and 610000 CFU/mL lavage fluid
Log10(CFU/mL lavage fluid) [5]: 6.35 Log10(CFU/mL lavage fluid) and 5.58 Log10(CFU/mL lavage fluid) and 4.96 Log10(CFU/mL lavage fluid) and 4.89 Log10(CFU/mL lavage fluid) and 5.79 Log10(CFU/mL lavage fluid)
CFU/mL lavage fluid [6]: 123000 CFU/mL lavage fluid and 55000 CFU/mL lavage fluid and 380000 CFU/mL lavage fluid and 85000 CFU/mL lavage fluid and 1000000 CFU/mL lavage fluid
Log10(CFU/mL lavage fluid) [6]: 5.09 Log10(CFU/mL lavage fluid) and 4.74 Log10(CFU/mL lavage fluid) and 5.58 Log10(CFU/mL lavage fluid) and 4.93 Log10(CFU/mL lavage fluid) and 6.00 Log10(CFU/mL lavage fluid)
CFU/mL lavage fluid [7]: 5 CFU/mL lavage fluid and 295 CFU/mL lavage fluid and 380 CFU/mL lavage fluid and 10 CFU/mL lavage fluid
Log10(CFU/mL lavage fluid) [7]: 0.70 Log10(CFU/mL lavage fluid) and 2.47 Log10(CFU/mL lavage fluid) and 2.58 Log10(CFU/mL lavage fluid) and 1.00 Log10(CFU/mL lavage fluid)
CFU/mL lavage fluid [8]: 55 CFU/mL lavage fluid and <5 CFU/mL lavage fluid and 5 CFU/mL lavage fluid
Log10(CFU/mL lavage fluid) [8]: 1.74 Log10(CFU/mL lavage fluid) and <0.70 Log10(CFU/mL lavage fluid) and 0.70 Log10(CFU/mL lavage fluid)
CFU/mL lavage fluid [9]: <5 CFU/mL lavage fluid and 30 CFU/mL lavage fluid and 5 CFU/mL lavage fluid
Log10(CFU/mL lavage fluid) [9]: <0.70 Log10(CFU/mL lavage fluid) and 1.48 Log10(CFU/mL lavage fluid) and 0.70 Log10(CFU/mL lavage fluid)
CFU/mL lavage fluid [10]: <5 CFU/mL lavage fluid
Log10(CFU/mL lavage fluid) [10]: <0.70 Log10(CFU/mL lavage fluid)
CFU/mL lavage fluid [11]: 390000 CFU/mL and 85000 CFU/mL and 46000 CFU/mL and 59000 CFU/mL and 77000 CFU/mL
Log10(CFU/mL lavage fluid) [11]: 5.59 Log10(CFU/mL lavage fluid) and 4.93 Log10(CFU/mL lavage fluid) and 4.66 Log10(CFU/mL lavage fluid) and 4.77 Log10(CFU/mL lavage fluid) and 4.89 Log10(CFU/mL lavage fluid)
CFU/mL lavage fluid [12]: 64000 CFU/mL and 520000 CFU/mL and 61000 CFU/mL and 80000 CFU/mL and 103000 CFU/mL
Log10(CFU/mL lavage fluid) [12]: 4.81 Log10(CFU/mL lavage fluid) and 5.72 Log10(CFU/mL lavage fluid) and 4.79 Log10(CFU/mL lavage fluid) and 4.9 Log10(CFU/mL lavage fluid) and 5.01 Log10(CFU/mL lavage fluid)
CFU/mL lavage fluid [13]: 47000 CFU/mL and 64000 CFU/mL and 4900 CFU/mL and 1450 CFU/mL and 20400 CFU/mL
Log10(CFU/mL lavage fluid) [13]: 4.67 Log10(CFU/mL lavage fluid) and 4.81 Log10(CFU/mL lavage fluid) and 3.69 Log10(CFU/mL lavage fluid) and 3.16 Log10(CFU/mL lavage fluid) and 4.31 Log10(CFU/mL lavage fluid)
